The source of these data is US10590086B2, “Pharmaceutical compound” (IOmet Pharma Ltd., priority 2014, dated 2020).

Assay [1] has as its target T1, IDO (Homo sapiens, UniProt P14902). As to the kind of experiment: SKOV3 kynurenine cell-based assay (IDO induced by IFN-γ). Set-up: IDO expression was induced in the SKOV3 cells by the addition of 500 ng/ml IFN-γ; endogenous in cells; host or cells: SKOV3 (human ovarian adenocarcinoma), induced with IFN-γ. The note with it: 48 hours, read-out: SKOV3 Kynurenine cell based assay pIC50 (converted). In a few lines: (§1)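 Cellular kynurenine production, TDO via A172 glioblastoma and IDO via IFN-γ-stimulated SKOV3 ovarian adenocarcinoma cells, was quantified after 48 hours' compound treatment in 500 μM L-tryptophan medium, using Erhlich's reagent and absorbance at 490 nm.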

For assay [2], the target named is T2, TDO (Homo sapiens, UniProt P48775). Kind of assay: A172 kynurenine cell-based assay. The arrangement: This assay utilised cancer cells which expressed either TDO or IDO; endogenous in cells; host or cells: A172 (human glioblastoma). To be noted: A172 human glioblastoma cells, 48 hours, read-out: A172 Kynurenine cell based assay pIC50 (converted). An outline of the steps: as §1
T2 sequence (P48775 whole entry): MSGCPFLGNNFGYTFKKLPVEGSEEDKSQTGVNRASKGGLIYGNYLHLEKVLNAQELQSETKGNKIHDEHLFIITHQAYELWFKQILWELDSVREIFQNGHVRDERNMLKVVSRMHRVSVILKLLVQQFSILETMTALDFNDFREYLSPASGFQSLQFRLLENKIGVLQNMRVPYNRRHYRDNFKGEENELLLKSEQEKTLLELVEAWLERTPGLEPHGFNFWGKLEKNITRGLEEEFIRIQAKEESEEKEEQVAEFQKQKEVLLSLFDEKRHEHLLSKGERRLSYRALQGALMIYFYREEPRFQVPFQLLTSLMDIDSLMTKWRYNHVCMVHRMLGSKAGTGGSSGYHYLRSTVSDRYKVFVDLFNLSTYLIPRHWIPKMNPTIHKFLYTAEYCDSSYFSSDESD

Assay [3] concerns the target T1, IDO. As to the kind of experiment: hIDO biochemical coupled assay. To be noted: 45 μM L-tryptophan, read-out: hIDO biochemical assay pIC50 (converted).
The target of assay [4] is T2, TDO. Kind of assay: hTDO biochemical coupled assay. The note with it: 330 μM L-tryptophan; for IC50: 17 minutes, room temperature, read-out: hTDO biochemical assay pIC50 (converted).
Where [5] appears, read: SKOV3 human ovarian adenocarcinoma cells, 500 ng/ml IFN-γ, 500 μM L-tryptophan.

Bounds are passed on as bounds.

T1 sequence (P14902 whole entry): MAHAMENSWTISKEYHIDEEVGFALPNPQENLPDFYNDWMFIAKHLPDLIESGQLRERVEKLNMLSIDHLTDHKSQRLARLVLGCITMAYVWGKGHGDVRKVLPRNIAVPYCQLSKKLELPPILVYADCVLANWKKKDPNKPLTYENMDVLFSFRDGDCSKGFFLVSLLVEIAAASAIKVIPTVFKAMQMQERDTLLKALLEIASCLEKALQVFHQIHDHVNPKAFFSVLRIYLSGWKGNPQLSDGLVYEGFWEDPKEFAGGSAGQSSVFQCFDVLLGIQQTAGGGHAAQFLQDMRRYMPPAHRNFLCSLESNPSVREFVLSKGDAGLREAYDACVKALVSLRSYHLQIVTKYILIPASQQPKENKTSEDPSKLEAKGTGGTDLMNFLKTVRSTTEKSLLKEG

For the compound `CS(=O)(=O)Nc1ccc2c(c1)CCN(c1cc(Cl)cc3[nH]ncc13)C2` [Compound 342], the IC50 on IDO [1] (setting [5]) is 3.24 to 31.6 µM; at TDO [2] (500 μM L-tryptophan), below 3.16 µM; at IDO [3] (17 minutes, room temperature), above 100 µM; at TDO [4], below 3.16 µM.
`CC1(C)CN(c2cc(Cl)cc3c(N)noc23)CCN1S(C)(=O)=O` [Compound 317]: the IC50 at IDO [1] (setting [5]) was 32.4 to 100 µM; at TDO [2] (500 μM L-tryptophan) it was above 100 µM; at IDO [3] (17 minutes, room temperature), above 100 µM; on TDO [4] it was 3.24 to 31.6 µM.
As to `CC(=O)Nc1ccc(-c2cc(Cl)cc3[nH]ncc23)cc1` [Compound 246], the IC50 at IDO [1] (setting [5]) is 3.24 to 31.6 µM; on TDO [2] (500 μM L-tryptophan), below 3.16 µM; on IDO [3] (17 minutes, room temperature) it was above 100 µM; at TDO [4] it was below 3.16 µM.
Take `Clc1cc(N2CCC(c3nccs3)CC2)c2cn[nH]c2c1` [Compound 313]: the IC50 at IDO [1] (setting [5]) is 3.24 to 31.6 µM; at TDO [2] (500 μM L-tryptophan) it was below 3.16 µM; on IDO [3] (17 minutes, room temperature), 3.24 to 31.6 µM; at TDO [4], below 3.16 µM.
On to `CC(=O)N1CCN(c2cccc3[nH]ncc23)CC1` [Compound 11], for which the IC50 was 32.4 to 100 µM at IDO [1] (setting [5]); 3.24 to 31.6 µM at TDO [2] (500 μM L-tryptophan); above 100 µM on IDO [3] (17 minutes, room temperature); 32.4 to 100 µM on TDO [4].
For `CS(=O)(=O)N1CCN(c2cc(Cl)cc3[nH]ncc23)CC1` [Compound 28, 6-chloro-4-(4-(methylsulfonyl)piperazin-1-yl)-1H-indazole], the IC50 on IDO [1] (SKOV3 cells, IDO induced by 500 ng/ml IFN-γ) was 10.5 µM; at IDO [1] (setting [5]) it was 3.24 to 31.6 µM; on TDO [2] (500 μM L-tryptophan) it was below 3.16 µM; at TDO [2], 0.339 µM; on IDO [3] (17 minutes, room temperature), 3.24 to 31.6 µM; at IDO [3], 22.4 µM. Further, the IC50 on TDO [4] is below 3.16 µM. Further, the hTDO biochemical assay pIC50 on TDO [4] turned out to be 6.34.
With `O=C1NC(=O)C2(CCN(c3cc(Br)cc4[nH]ncc34)CC2)N1` [Compound 290], the IC50 is below 3.16 µM on IDO [1] (setting [5]); below 3.16 µM at TDO [2] (500 μM L-tryptophan); below 3.16 µM at IDO [3] (17 minutes, room temperature); below 3.16 µM on TDO [4].
On to `Clc1cc(C2CCOCC2)c2cn[nH]c2c1` [Compound 426], for which the IC50 on IDO [1] (setting [5]) is above 100 µM; at TDO [2] (500 μM L-tryptophan) it was below 3.16 µM; on IDO [3] (17 minutes, room temperature), 3.24 to 31.6 µM; at TDO [4], below 3.16 µM.
As for `CS(=O)(=O)N1CCN(C2CCN(c3cc(Cl)cc4[nH]ncc34)CC2)CC1` [Compound 453], the IC50 was above 100 µM at IDO [1] (setting [5]); below 3.16 µM at TDO [2] (500 μM L-tryptophan); 3.24 to 31.6 µM on IDO [3] (17 minutes, room temperature); below 3.16 µM on TDO [4].
As to `Cc1c2c(nn1C)CCN(c1cc(Cl)cc3[nH]ncc13)C2` [Compound 378], the IC50 on IDO [1] (setting [5]) was 3.24 to 31.6 µM; on TDO [2] (500 μM L-tryptophan), below 3.16 µM; on IDO [3] (17 minutes, room temperature), above 100 µM; at TDO [4] it was below 3.16 µM.
With `CC(=O)N(C)c1cc(N2CCN(S(C)(=O)=O)CC2)c2cn[nH]c2c1` [Compound 213], the IC50 on IDO [1] (setting [5]) is 32.4 to 100 µM; at TDO [2] (500 μM L-tryptophan), 32.4 to 100 µM; on IDO [3] (17 minutes, room temperature), above 100 µM; at TDO [4] it was above 100 µM.
On to `Cc1nc2c(o1)CN(c1cc(Cl)cc3[nH]ncc13)CC2(C)C` [Compound 425], for which the IC50 on IDO [1] (setting [5]) was above 100 µM; at TDO [2] (500 μM L-tryptophan), below 3.16 µM; on IDO [3] (17 minutes, room temperature), above 100 µM; on TDO [4], below 3.16 µM.
As to `CC(=O)N1CCN(c2cc(Cl)cc3[nH]ncc23)CC1CO` (stereo not shown) [Compound 454], the IC50 on IDO [1] (setting [5]) was above 100 µM; at TDO [2] (500 μM L-tryptophan), below 3.16 µM; at IDO [3] (17 minutes, room temperature) it was 32.4 to 100 µM; at TDO [4] it was below 3.16 µM.
As to `NS(=O)(=O)N1CC2(CCN(c3cc(Cl)cc4[nH]ncc34)CC2)C1` [Compound 367], the IC50 on IDO [1] (setting [5]) was 3.24 to 31.6 µM; on TDO [2] (500 μM L-tryptophan), below 3.16 µM; on IDO [3] (17 minutes, room temperature), 3.24 to 31.6 µM; on TDO [4], below 3.16 µM.
As to `CS(=O)(=O)N1CCN(c2cc(Cl)cc3[nH]ncc23)C2CCCCC21` (racemic) [Compound 341], the IC50 on IDO [1] (setting [5]) is 32.4 to 100 µM; on TDO [2] (500 μM L-tryptophan), 3.24 to 31.6 µM; at IDO [3] (17 minutes, room temperature), above 100 µM; at TDO [4] it was above 100 µM.
